Measured values as given in patent publication US20250064990A1, “METHODS OF SCREENING FOR VMAT2 INHIBITORS” (Neurocrine Biosciences, Inc., priority 2021, published 2025).

Target: VMAT2 (Homo sapiens, UniProt Q05940)
Experiment: VMAT2 target occupancy of single oral doses of NBI-750142 in healthy adult male subjects, [^18F]AV-133 PET
Type: in vivo
Design: from tissue; host or cells: brain (caudate, putamen, midbrain) of living healthy adult male subjects
Settings: for NBI-750142 T1 Occ / [^18F]AV-133 BPND T1: T1 ([…] post dose); for NBI-750142 T2 Occ / [^18F]AV-133 BPND T2: T2 (18 h post dose)
Protocol: This study was conducted to evaluate the brain penetration and target engagement of VMAT2 after single oral doses of NBI-750142 in healthy subjects. This PET study assessed the engagement of NBI-750142 with VMAT2 in vivo at two time-points after dosing. A sequential-cohort design allowed for the safety, target-occupancy, and available pharmacokinetic (PK) data from each prior cohort to be evaluated before selection of the dose level for the next cohort. A range of NBI-750142 doses (max. 200 mg) were studied to explore the relationship between NBI-750142 plasma concentrations and engagement of VMAT2 in selected brain regions.
This was a Phase 1 single-center, open-label, single-dose, target occupancy study of NBI-750142 in up to 12 healthy male subjects using [^18F]AV-133 PET imaging. […] A total of 12 subjects completed the study. Subjects enrolled in the study were required to report to the clinical research site for 4 separate occasions, detailed below.
Two subjects were initially enrolled in each dose cohort. Each subject received one brain structural magnetic resonance imaging (MRI) scan during screening and up to 3 [^18F]AV-133 PET scans (1 baseline and up to 2 follow-up scans after receiving a single dose of NBI-750142). Subjects enrolled in the first cohort received a single dose of 100 mg of NBI-750142 orally on Day 1. PET scans occurred on Day 1 at approximately 1.5 hours post NBI-750142 dose and on Day 2 at approximately 18 hours post NBI-750142 dose. Subjects were then discharged from the study center after all Day 3 procedures and assessments were completed.
Subjects were administered a single dose of [^18F]AV-133 intravenously over 3 minutes using an infusion pump (approximately 3.33 mL per minute) through a venous catheter followed by a 10 mL saline flush. Dynamic PET imaging of the brain was acquired over 120 min following radiotracer injection on a Siemens Biograph 6 PET/CT camera according to the following protocol: • CT scan of the head • [^18F]AV-133 injection (T=0 min) • Emission scan: 6×30 sec, 4×1 min, 4×2 min, 21×5 min (0-120 min)
Reconstructed PET imaging data volumes were transferred to the image processing PMOD software package (PMOD Technologies, Zurich, Switzerland) where the images were motion and decay corrected, realigned onto the subject MRI and subsequently normalized into the standard MNI (Montreal Neurological Institute) space where volumes of interest (VOIs) were defined from a template (see e.g., Hammers et al, Adult brain maximum probability map (“Hammersmith atlas”; n30r83) in MNI space. 2008). The subject MRI was segmented into grey matter, white matter, and CSF maps. Average activity concentration (kBq/cc) within each VOI, constrained to grey matter voxels for cortical regions, were determined and time activity curves (TACs) were generated. TACs were extracted from the following VOIs: caudate and putamen (striatum), midbrain, cerebellar and occipital cortices. TACs and were expressed in standard uptake value (SUV) units (g/mL) by normalizing with the weight of the subject and the injected dose. The occipital cortex was used as a reference region to normalize activity in target regions to generate SUVr images. For visualization, standard uptake value ratio (SUVr) images were computed between 60-120 min. Non-displaceable binding potential (BPND), the primary outcome measure, was estimated with noninvasive Logan graphical analysis (NI-LGA, t*=20 min) in caudate, putamen and midbrain using the occipital cortex as the reference region. Percent measured occupancy (OM) of NBI-750142 (drug) by region was computed according to the Equation 3-1 at each of the post-dose timepoints, T1 (1.5 h post dose) and T2 (18 h post dose).
Post-hoc exploratory analysis applied an Upregulation model (Equation 3-3), in order to account for the apparent ‘negative occupancy’ values observed at T2 (BPND values at T2 were unexpectedly higher than corresponding BPND values at baseline). […]

[1] = Cohort 1, 100 mg, Subject 1, Caudate
[2] = Cohort 1, 100 mg, Subject 1, Midbrain
[3] = Cohort 1, 100 mg, Subject 1, Putamen
[4] = Cohort 1, 100 mg, Subject 2, Caudate
[5] = Cohort 1, 100 mg, Subject 2, Midbrain
[6] = Cohort 1, 100 mg, Subject 2, Putamen
[7] = Cohort 2, 200 mg, Subject 1, Caudate
[8] = Cohort 2, 200 mg, Subject 1, Midbrain
[9] = Cohort 2, 200 mg, Subject 1, Putamen
[10] = Cohort 2, 200 mg, Subject 2, Caudate
[11] = Cohort 2, 200 mg, Subject 2, Midbrain
[12] = Cohort 2, 200 mg, Subject 2, Putamen
[13] = Cohort 3, 60 mg, Subject 1, Caudate
[14] = Cohort 3, 60 mg, Subject 1, Midbrain
[15] = Cohort 3, 60 mg, Subject 1, Putamen
[16] = Cohort 3, 60 mg, Subject 2, Caudate
[17] = Cohort 3, 60 mg, Subject 2, Midbrain
[18] = Cohort 3, 60 mg, Subject 2, Putamen
[19] = Cohort 4, 60 mg, Subject 1, Caudate

VMAT2, sequence (Q05940 whole entry): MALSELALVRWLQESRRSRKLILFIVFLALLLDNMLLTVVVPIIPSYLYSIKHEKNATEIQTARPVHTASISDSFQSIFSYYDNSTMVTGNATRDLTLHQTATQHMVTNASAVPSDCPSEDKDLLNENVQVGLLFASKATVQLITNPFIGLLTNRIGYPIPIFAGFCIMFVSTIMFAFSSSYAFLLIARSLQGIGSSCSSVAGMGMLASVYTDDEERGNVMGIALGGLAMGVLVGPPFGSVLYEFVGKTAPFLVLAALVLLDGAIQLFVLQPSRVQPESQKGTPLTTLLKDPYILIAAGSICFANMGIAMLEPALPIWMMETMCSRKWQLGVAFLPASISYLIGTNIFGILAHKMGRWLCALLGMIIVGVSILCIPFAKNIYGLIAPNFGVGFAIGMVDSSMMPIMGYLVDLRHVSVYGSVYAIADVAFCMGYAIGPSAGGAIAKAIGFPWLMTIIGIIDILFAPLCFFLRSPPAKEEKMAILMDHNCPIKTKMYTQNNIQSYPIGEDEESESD

## COc1cc2c(cc1OC)[C@H]1CN(C)[C@H](CC(C)(C)C)CN1CC2 [NBI-750142]
10 mg, cohorts 5A and 5B
  [^18F]AV-133 striatal uptake at T1 vs baseline: did not show reduction in uptake
60 mg, cohorts 3 and 4
  [^18F]AV-133 striatal uptake at T1 vs baseline: showed variability between subjects
100 mg and 200 mg doses, both subjects
  [^18F]AV-133 striatal uptake at T1 vs baseline: markedly reduced uptake
[1]
  NBI-750142 T1 Occ: 72%
  [^18F]AV-133 BPND T1: 0.34
  NBI-750142 T2 Occ: 3%
  [^18F]AV-133 BPND T2: 1.15
[2]
  NBI-750142 T1 Occ: 59%
  [^18F]AV-133 BPND T1: 0.15
  NBI-750142 T2 Occ: 5%
  [^18F]AV-133 BPND T2: 0.34
[3]
  NBI-750142 T1 Occ: 54%
  [^18F]AV-133 BPND T1: 0.95
  NBI-750142 T2 Occ: −2%
  [^18F]AV-133 BPND T2: 2.11
[4]
  NBI-750142 T1 Occ: 80%
  [^18F]AV-133 BPND T1: 0.38
  NBI-750142 T2 Occ: 15%
  [^18F]AV-133 BPND T2: 1.60
[5]
  NBI-750142 T1 Occ: 60%
  [^18F]AV-133 BPND T1: 0.20
  NBI-750142 T2 Occ: 30%
  [^18F]AV-133 BPND T2: 0.36
[6]
  NBI-750142 T1 Occ: 73%
  [^18F]AV-133 BPND T1: 0.66
  NBI-750142 T2 Occ: 13%
  [^18F]AV-133 BPND T2: 2.09
Cohort 1 at 100 mg, subject 1, 18 h post dose
  Occupancy at T2 in striatum: 1%
Cohort 1 at 100 mg, subject 2, 18 h post dose
  Occupancy at T2 in striatum: 14%
[7]
  NBI-750142 T1 Occ: 75%
  [^18F]AV-133 BPND T1: 0.40
  NBI-750142 T2 Occ: −30%
  [^18F]AV-133 BPND T2: 2.06
[8]
  NBI-750142 T1 Occ: 63%
  [^18F]AV-133 BPND T1: 0.14
  NBI-750142 T2 Occ: −33%
  [^18F]AV-133 BPND T2: 0.49
[9]
  NBI-750142 T1 Occ: 69%
  [^18F]AV-133 BPND T1: 0.74
  NBI-750142 T2 Occ: −26%
  [^18F]AV-133 BPND T2: 3.00
[10]
  NBI-750142 T1 Occ: 72%
  [^18F]AV-133 BPND T1: 0.51
  NBI-750142 T2 Occ: −7%
  [^18F]AV-133 BPND T2: 1.91
[11]
  NBI-750142 T1 Occ: 60%
  [^18F]AV-133 BPND T1: 0.23
  NBI-750142 T2 Occ: 7%
  [^18F]AV-133 BPND T2: 0.53
[12]
  NBI-750142 T1 Occ: 67%
  [^18F]AV-133 BPND T1: 0.88
  NBI-750142 T2 Occ: −5%
  [^18F]AV-133 BPND T2: 2.81
Cohort 2 at 200 mg, subject 1, 18 h post dose
  Occupancy at T2 in striatum: −28%
Cohort 2 at 200 mg, subject 2, 18 h post dose
  Occupancy at T2 in striatum: −6%
[13]
  NBI-750142 T1 Occ: 37%
  [^18F]AV-133 BPND T1: 1.04
  NBI-750142 T2 Occ: −15%
  [^18F]AV-133 BPND T2: 1.93
[14]
  NBI-750142 T1 Occ: 47%
  [^18F]AV-133 BPND T1: 0.20
  NBI-750142 T2 Occ: −5%
  [^18F]AV-133 BPND T2: 0.39
[15]
  NBI-750142 T1 Occ: 34%
  [^18F]AV-133 BPND T1: 1.31
  NBI-750142 T2 Occ: −12%
  [^18F]AV-133 BPND T2: 2.22
[16]
  NBI-750142 T1 Occ: 6%
  [^18F]AV-133 BPND T1: 1.62
  NBI-750142 T2 Occ: −20%
  [^18F]AV-133 BPND T2: 2.07
[17]
  NBI-750142 T1 Occ: 16%
  [^18F]AV-133 BPND T1: 0.44
  NBI-750142 T2 Occ: −22%
  [^18F]AV-133 BPND T2: 0.64
[18]
  NBI-750142 T1 Occ: 3%
  [^18F]AV-133 BPND T1: 2.14
  NBI-750142 T2 Occ: −22%
  [^18F]AV-133 BPND T2: 2.70
Cohort 3 at 60 mg, subject 1, 18 h post dose
  Occupancy at T2 in striatum: −14%
Cohort 3 at 60 mg, subject 2, 18 h post dose
  Occupancy at T2 in striatum: −21%
[19]
  NBI-750142 T1 Occ: 50%
  [^18F]AV-133 BPND T1: 0.78
  NBI-750142 T2 Occ: −8%
